Here are results for six molecules from patent US4072759A, “Novel benzylalcohol derivatives as antidiabetics and cardiotonics” (Tanabe Seiyaku Co., Ltd., priority 1976, dated 1978).

Each structure is given as a SMILES string.

The nature of data set [1]: decrease of blood sugar in mice, oral administration prior to subcutaneous injection of glucose. It is filed as in vivo. Here is the method: For example, when α-(3,4-dimethoxyphenethylaminomethyl)-2-hydroxybenzylalcohol is administered orally to mice at a dose of 10 mg/kg prior to subcutaneous injection of glucose (1 g/kg), said 2-hydroxybenzylalcohol derivative of the invention decreases the blood sugar level by about 30 %. On the other hand, when examined under the same conditions as above, 100 mg/kg of Phenformin (Chemical name: 1-phenethylbiguanide) are required to induce 13 % decrease in said blood sugar.

Data set [2] has as its system adrenergic β1-receptor. To be noted: cited from earlier work.
In data set [3] the test system is adrenergic β1-receptor. The experiment in a line: cardiac contractile activity (general statement).
The test system of data set [4] is adrenergic β1-receptor. The experiment in a line: increase of cardiac contractile force after injection into femoral vein of dogs. It is filed as in vivo. The conditions noted are these: injected into femoral vein, 10 μg/kg.
A short description of data set [5]: 50 % lethal dose by intravenous injection to mice. The conditions noted are these: mouse, in vivo. From the text: Further, the toxicity of the benzylalcohol derivative (I) of the present invention is remarkably low.

In the case of `N=C(N)NC(=N)NCCc1ccccc1` [Phenformin, 1-phenethylbiguanide, reference compound], in data set [1] (mice, same conditions, 100 mg/kg), the “decrease in blood sugar” value was 13%.
In the case of `COc1cc(CCNCC(O)c2ccc(O)c(O)c2)cc(OC)c1OC` (stereo not drawn) [α-(3,4,5-trimethoxyphenethylaminomethyl)-3,4-dihydroxybenzylalcohol], the “activation of adrenergic β1-receptor” value in data set [2] was “selective activation of adrenergic β1 -receptor”.
Consider `COc1ccc(CCNCC(O)c2ccccc2O)cc1OC` (stereo not drawn) [α-(3,4-dimethoxyphenethylaminomethyl)-2-hydroxybenzylalcohol], for which, in data set [1] (mice, oral, 10 mg/kg, prior to subcutaneous glucose (1 g/kg)), the “decreases the blood sugar level” value is on record as “about 30%”. Also, in data set [1] (mouse, in vivo), the “decrease of blood sugar (in words)” value is recorded as “remarkable decrease of blood sugar”. Moreover, the cardiac contractile activity entry in data set [3] is “no substantial cardiac contractile activity”.
As for `COc1ccc(CCNCC(O)c2ccc(O)c(O)c2)cc1OC` (stereo not drawn) [α-(3,4-dimethoxyphenethylaminomethyl)-3,4-dihydroxybenzylalcohol], in data set [2], the “activation of adrenergic β1-receptor” value is recorded as “selective activation of adrenergic β1 -receptor”.
For the molecule `COc1ccc(CCNCC(O)c2cccc(O)c2)cc1OC` (stereo not drawn) [α-(3,4-dimethoxyphenethylaminomethyl)-3-hydroxybenzylalcohol], the “increase the cardiac contractile force” value in data set [4] turned out to be 55%.
For `COc1ccc(CCNCC(O)c2ccc(O)cc2)cc1OC` (stereo not drawn) [α-(3,4-dimethoxyphenethylaminomethyl)-4-hydroxybenzylalcohol], the LD50 in data set [5] was ~198 mg/kg.
